Data: patent US10336701B2, “Pyridin-2-one derivatives of formula (II) useful as EP3 receptor antagonists” (Janssen Pharmaceutica NV, priority 2017, dated 2019)

How the values were obtained:
EP3 receptor [1] = biological target: T1, EP3 receptor (Homo sapiens, UniProt P43115); assay: [3H]-PGE2 binding assay (EP3 competition binding); details: read-out: [3H]-PGE2 Binding Ki
T1 construct: purchased Millipore HTS092M
T1 sequence (P43115 1-390): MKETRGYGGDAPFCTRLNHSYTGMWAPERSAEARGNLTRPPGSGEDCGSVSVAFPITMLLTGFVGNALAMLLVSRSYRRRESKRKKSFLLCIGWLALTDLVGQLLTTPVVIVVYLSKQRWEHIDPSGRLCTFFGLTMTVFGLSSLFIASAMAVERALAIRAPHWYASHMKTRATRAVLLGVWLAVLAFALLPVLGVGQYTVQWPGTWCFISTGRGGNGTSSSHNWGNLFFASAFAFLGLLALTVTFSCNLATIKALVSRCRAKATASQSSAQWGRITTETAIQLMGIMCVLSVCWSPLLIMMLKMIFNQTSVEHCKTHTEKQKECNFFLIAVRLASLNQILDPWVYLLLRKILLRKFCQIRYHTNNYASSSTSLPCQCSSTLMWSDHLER
How it was run: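 Scintillation-bead competition binding with EP3 membranes (2 μg/well), 2 nM [3H]-PGE2, 0.1% DMSO, in 50 mM Tris, 10 mM MgCl2, 1 mM EDTA, pH 7.4.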

EP3 receptor [2] = biological target: T1, EP3 receptor; assay: CHO cell cAMP assay (forskolin and sulprostone stimulated, HTRF); type: cell-based; details: CHO cells; sulprostone 700 nM (EC80) and FSK 2 μM (EC70), 37° C. for 30 minutes; read-out: CHO_cAMP IC50
Method: For detection, a homogeneous competitive immunoassay (Time Resolved Fluorescence Energy Transfer (hTR-FRET)) was used.
Cells (6K cells per well) were plated in Poly-D-Lysine coated plates the day before the assay was to be run and were incubated at 37° C. […] At the start of the assay the buffer was removed from the cells and replaced with buffer containing test compound(s). Sulprostone at an EC80 dose (700 nM) and FSK at an EC70 dose (2 μM) were added to initiate the reaction (37° C. for 30 minutes).
FSK increases cAMP production and sulprostone decreases cAMP production produced by FSK. In this assay, EP3 antagonists will increase the cAMP to the level of cAMP generated by FSK alone.
Approximately one hour later the plates were read on an Envision (Perkin Elmer) in HTRF mode.
NSP, NSN, NSsample were converted to nM cAMP using the following equation: […]
IC50 values were determined from a […] (Hill equation) of a single 11-point compound dosing.

Structure (SMILES): CCN1CCOc2ccc(-c3ccc(C(c4noc(=O)[nH]4)C(C)C)c(=O)[nH]3)cc21 (stereo not drawn) [Compound #278, 3-(1-(6-(4-ethyl-3,4-dihydro-2H-benzo[b][1,4]oxazin-6-yl)-2-oxo-1,2-dihydropyridin-3-yl)-2-methylpropyl)-1,2,4-oxadiazol-5(4H)-one]
- Ki (EP3 receptor [1]): 368 nM
- IC50 (EP3 receptor [2]): 591 nM

Structure (SMILES): CCOC(=O)C(C1=CCCCC1)c1ccc(-c2ccc3ccccc3c2)[nH]c1=O (stereo not drawn) [Compound #280, ethyl 2-(cyclohex-1-en-1-yl)-2-(6-(naphthalen-2-yl)-2-oxo-1,2-dihydropyridin-3-yl)acetate]
- Ki (EP3 receptor [1]): 76 nM
- IC50 (EP3 receptor [2]): 671 nM

Structure (SMILES): CC(C)/C(=C1/OC(=O)NC1=O)c1ccc(-c2ccc3cccc(F)c3c2)[nH]c1=O [Compound #303, (Z)-5-(1-(6-(8-fluoronaphthalen-2-yl)-2-oxo-1,2-dihydropyridin-3-yl)-2-methylpropylidene)oxazolidine-2,4-dione]
- Ki (EP3 receptor [1]): 14 nM
- IC50 (EP3 receptor [2]): 1280 nM

Structure (SMILES): CC(C)/C(Cc1ccc(-c2ccc3cccc(F)c3c2)[nH]c1=O)=C1/OC(=O)NC1=O [Compound #306, (E)-5-(1-(6-(8-fluoronaphthalen-2-yl)-2-oxo-1,2-dihydropyridin-3-yl)-3-methylbutan-2-ylidene)oxazolidine-2,4-dione]
- Ki (EP3 receptor [1]): 54 nM
- IC50 (EP3 receptor [2]): 111 nM

Structure (SMILES): CC(C)C(Cc1ccc(-c2ccc3cccc(F)c3c2)[nH]c1=O)C1OC(=O)NC1=O (stereo not drawn) [Compound #308, 5-(1-(6-(8-fluoronaphthalen-2-yl)-2-oxo-1,2-dihydropyridin-3-yl)-3-methylbutan-2-yl)oxazolidine-2,4-dione]
- Ki (EP3 receptor [1]): 46 nM
- IC50 (EP3 receptor [2]): 210 nM

Structure (SMILES): CC(C)(CC1OC(=O)NC1=O)c1ccc(-c2ccc3cccc(F)c3c2)[nH]c1=O (stereo not drawn) [compound 1, 5-(2-(6-(8-fluoronaphthalen-2-yl)-2-oxo-1,2-dihydropyridin-3-yl)-2-methylpropyl) oxazolidine-2,4-dione]
- Ki (EP3 receptor [1]): 39 nM
- IC50 (EP3 receptor [2]): 88 nM

Structure (SMILES): O=C1NC(=O)C(CC2(c3ccc(-c4ccc5cccc(F)c5c4)[nH]c3=O)CCCC2)O1 (stereo not drawn) [compound 7, 5-((1-(6-(8-fluoronaphthalen-2-yl)-2-oxo-1,2-dihydropyridin-3-yl)cyclopentyl)methyl) oxazolidine-2,4-dione]
- Ki (EP3 receptor [1]): 39 nM
- IC50 (EP3 receptor [2]): 149 nM

Structure (SMILES): CCC(CC)(CC1OC(=O)NC1=O)c1ccc(-c2ccc3cccc(F)c3c2)[nH]c1=O (stereo not drawn) [compound 9, 5-(2-ethyl-2-(6-(8-fluoronaphthalen-2-yl)-2-oxo-1,2-dihydropyridin-3-yl)butyl)oxazolidine-2,4-dione]
- Ki (EP3 receptor [1]): 23 nM
- IC50 (EP3 receptor [2]): 108 nM

Structure (SMILES): CCn1ncc2c(F)c(-c3ccc(C(/C=C4/OC(=O)NC4=O)(CC)CC)c(=O)[nH]3)ccc21 [compound 12, (E)-5-(2-ethyl-2-(6-(1-ethyl-4-fluoro-1H-indazol-5-yl)-2-oxo-1,2-dihydropyridin-3-yl)butylidene)oxazolidine-2,4-dione]
- Ki (EP3 receptor [1]): 1350 nM
- IC50 (EP3 receptor [2]): > 20000 nM

Structure (SMILES): CCn1ncc2c(F)cc(-c3ccc(C(/C=C4\CCNC4=O)(CC)CC)c(=O)[nH]3)cc21 [compound 13, (E)-6-(1-ethyl-4-fluoro-1H-indazol-6-yl)-3-(3-((2-oxopyrrolidin-3-ylidene)methyl)pentan-3-yl)pyridin-2(1H)-one]
- Ki (EP3 receptor [1]): 3 nM
- IC50 (EP3 receptor [2]): 22 nM

Structure (SMILES): CCn1ncc2c(F)cc(-c3ccc(C(/C=C4\CCNC4=O)(CC)CC)c(=O)[nH]3)cc21 [compound 16, 6-(1-ethyl-4-fluoro-indazol-6-yl)-3-[1-ethyl-1-[(E)-(2-oxopyrrolidin-3-ylidene)methyl]propyl]-1H-pyridin-2-one]
- Ki (EP3 receptor [1]): 6 nM
- IC50 (EP3 receptor [2]): 17 nM

Structure (SMILES): CCC(/C=C1/OC(=O)NC1=O)(CC)c1ccc(-c2ccc3c(c2)OC(C)(C)C=C3)[nH]c1=O [compound 28, 5-(2-(6-(2,2-dimethyl-2H-chromen-7-yl)-2-oxo-1,2-dihydropyridin-3-yl)-2-ethylbutylidene)oxazolidine-2,4-dione]
- Ki (EP3 receptor [1]): 5620 nM
- IC50 (EP3 receptor [2]): > 20000 nM

Structure (SMILES): CCn1ncc2c(F)cc(-c3ccc(C(CC)(CC)c4ncc[nH]4)c(=O)[nH]3)cc21 [compound 31, 6-(1-ethyl-4-fluoro-indazol-6-yl)-3-[1-ethyl-1-(1H-imidazol-2-yl)propyl]-1H-pyridin-2-one]
- Ki (EP3 receptor [1]): 37 nM
- IC50 (EP3 receptor [2]): 482 nM

Structure (SMILES): CCn1ncc2c(F)cc(-c3ccc(C(CC)(CC)CC4CCNC4=O)c(=O)[nH]3)cc21 (stereo not drawn) [compound 40, 6-(1-ethyl-4-fluoro-1H-indazol-6-yl)-3-(3-((2-oxopyrrolidin-3-yl)methyl)pentan-3-yl)pyridin-2(1H)-one]
- Ki (EP3 receptor [1]): 11 nM
- IC50 (EP3 receptor [2]): 44 nM

Structure (SMILES): CCN1CCOc2ccc(-c3ccc(C(CC)(CC)CC4OC(=O)NC4=O)c(=O)[nH]3)cc21 (stereo not drawn) [compound 44, 5-(2-ethyl-2-(6-(4-ethyl-3,4-dihydro-2H-benzo[b][1,4]oxazin-6-yl)-2-oxo-1,2-dihydropyridin-3-yl)butyl)oxazolidine-2,4-dione]
- Ki (EP3 receptor [1]): 93 nM
- IC50 (EP3 receptor [2]): 505 nM

Structure (SMILES): CCn1ncc2c(F)cc(-c3ccc(C(CC)(CC)CC4OC(=O)NC4=O)c(=O)[nH]3)cc21 (stereo not drawn) [compound 56, 5-(2-ethyl-2-(6-(1-ethyl-4-fluoro-1H-indazol-6-yl)-2-oxo-1,2-dihydropyridin-3-yl)butyl)oxazolidine-2,4-dione]
- Ki (EP3 receptor [1]): 20 nM
- IC50 (EP3 receptor [2]): 230 nM

Structure (SMILES): CC(C)C(c1nnn[nH]1)c1ccc(-c2ccc3ccccc3c2)[nH]c1=O (stereo not drawn) [compound 61, 3-(2-Methyl-1-(1H-tetrazol-5-yl)propyl)-6-(naphthalen-2-yl)pyridin-2(1H)-one]
- Ki (EP3 receptor [1]): 43 nM
- IC50 (EP3 receptor [2]): 376 nM

Structure (SMILES): CC(C)C(CC1OC(=O)NC1=O)c1ccc(-c2ccc3cccc(F)c3c2)[nH]c1=O (stereo not drawn) [compound 77]
- Ki (EP3 receptor [1]): 16 nM
- IC50 (EP3 receptor [2]): 60 nM

Structure (SMILES): Cc1cc(C(c2ncc[nH]2)C(C)C)c(=O)[nH]c1-c1ccc2cccc(F)c2c1 (stereo not drawn) [compound 82, 3-(1-(1H-imidazol-2-yl)-2-methylpropyl)-6-(8-fluoronaphthalen-2-yl)-5-methylpyridin-2(1H)-one]
- Ki (EP3 receptor [1]): 23 nM
- IC50 (EP3 receptor [2]): 137 nM

Structure (SMILES): CC(=C1OC(=O)NC1=O)C(c1ccc(-c2ccc3cccc(F)c3c2)[nH]c1=O)C(C)C (stereo not drawn) [compound 84]
- Ki (EP3 receptor [1]): 7 nM
- IC50 (EP3 receptor [2]): 26 nM

Structure (SMILES): CCn1cc2c(C)cc(-c3ccc(C(CC4OC(=O)NC4=O)C(C)C)c(=O)[nH]3)cc2n1 (stereo not drawn) [compound 86, 5-(2-(6-(2-ethyl-4-methyl-2H-indazol-6-yl)-2-oxo-1,2-dihydropyridin-3-yl)-3-methylbutyl)oxazolidine-2,4-dione]
- Ki (EP3 receptor [1]): 114 nM
- IC50 (EP3 receptor [2]): 916 nM

Structure (SMILES): CCn1ncc2c(F)cc(-c3ccc(C(CC4OC(=O)NC4=O)C(C)C)c(=O)[nH]3)cc21 (stereo not drawn) [compound 87, 5-(2-(6-(1-ethyl-4-fluoro-1H-indazol-6-yl)-2-oxo-1,2-dihydropyridin-3-yl)-3-methylbutyl)oxazoli-dine-2,4-dione]
- Ki (EP3 receptor [1]): 32 nM
- IC50 (EP3 receptor [2]): 149 nM

Structure (SMILES): CCn1cnc2c(F)c(-c3ccc(C(C=C4OC(=O)NC4=O)C(C)C)c(=O)[nH]3)ccc21 (stereo not drawn) [compound 90, 5-(2-(6-(1-ethyl-4-fluoro-1H-benzo[d]imidazol-5-yl)-2-oxo-1,2-dihydropyridin-3-yl)-3-methylbutyli-dene)oxazolidine-2,4-dione]
- Ki (EP3 receptor [1]): 633 nM
- IC50 (EP3 receptor [2]): 5430 nM

Structure (SMILES): CCn1cnc2ccc(-c3ccc(C(C=C4OC(=O)NC4=O)C(C)C)c(=O)[nH]3)c(F)c21 (stereo not drawn) [compound 91, 5-(2-(6-(3-ethyl-4-fluoro-3H-benzo[d]imidazol-5-yl)-2-oxo-1,2-dihydropyridin-3-yl)-3-methylbutylidene)oxazolidine-2,4-dione]
- Ki (EP3 receptor [1]): > 10000 nM
- IC50 (EP3 receptor [2]): > 20000 nM
